Assay results taken from ChEMBL document CHEMBL1914296, “Copper(II) chloride mediated synthesis and DNA photocleavage activity of 1-aryl/heteroaryl-4-substituted-1,2,4-triazolo[4,3-a]quinoxalines” (Eur J Med Chem, 2011).

Key:
[1] = Solubility of compound in DMSO; assay type: physicochemical
[2] = test system: Nucleic Acid; assay: (§1) Induction of bacteriophage supercoiled double stranded phiX174 plasmid DNA cleavage assessed as formation of relaxed open circular form at 40 ug using ethidium bromide staining by agarose gel electrophoresis-based UV transilluminator analysis relative to control; assay type: nucleic-acid assay; design: scale not given: the % may be the effect or the level left; conditions: unidentified phage
[3] = test system: Nucleic Acid; assay: as §1, with “30” for “40”, “ug followed by UV irradiation for 45 mins” for “ug”; assay type: nucleic-acid assay; design: scale not given: the % may be the effect or the level left; conditions: unidentified phage
[4] = test system: Nucleic Acid; assay: as §1, with “120” for “40”, “ug followed by UV irradiation for 45 mins” for “ug”; assay type: nucleic-acid assay; design: scale not given: the % may be the effect or the level left; conditions: unidentified phage
[5] = test system: Nucleic Acid; assay: as §1, with “80” for “40”, “ug followed by UV irradiation for 45 mins” for “ug”; assay type: nucleic-acid assay; design: scale not given: the % may be the effect or the level left; conditions: unidentified phage

Row | solubility [1] | Activity [2] | Activity [3] | Activity [4] | Activity [5] | Structure (SMILES)
1 | soluble | – | – | – | – | Cc1nc2ccccc2n2c(-c3ccco3)nnc12
2 | soluble | – | – | – | – | Cc1nc2ccccc2n2c(-c3ccccc3[N+](=O)[O-])nnc12
3 | soluble | – | – | – | – | Cc1nc2ccccc2n2c(-c3ccccc3Cl)nnc12
4 | soluble | 0% | 26% | 68% | 53% | Cc1nc2ccccc2n2c(-c3cccs3)nnc12
